Results taken from ChEMBL document CHEMBL5728516, “4,6-substituted-pyrazolo[1,5-a]pyrazines as janus kinase inhibitors” (2021).

Target: Tyrosine-protein kinase JAK2 (Homo sapiens, UniProt O60674)
Experiment: JAK2 Inhibition Assay: Compounds of Formula I were screened for their ability to inhibit JAK2 using the general enzyme inhibition assay method, in which the assay mixture contained 1 mM ATP, 10 μM Omnia® Y7 peptide (Catalog # IVGN KNZ3071C, Invitrogen Corporation, Carlsbad, Calif.) and 4 nM JAK2 in a total volume of 25 μL. JAK2 was purchased from Invitrogen Corporation, Carlsbad, Calif. (catalog # IVGN PV4288).

Chain of Tyrosine-protein kinase JAK2 (O60674 whole entry): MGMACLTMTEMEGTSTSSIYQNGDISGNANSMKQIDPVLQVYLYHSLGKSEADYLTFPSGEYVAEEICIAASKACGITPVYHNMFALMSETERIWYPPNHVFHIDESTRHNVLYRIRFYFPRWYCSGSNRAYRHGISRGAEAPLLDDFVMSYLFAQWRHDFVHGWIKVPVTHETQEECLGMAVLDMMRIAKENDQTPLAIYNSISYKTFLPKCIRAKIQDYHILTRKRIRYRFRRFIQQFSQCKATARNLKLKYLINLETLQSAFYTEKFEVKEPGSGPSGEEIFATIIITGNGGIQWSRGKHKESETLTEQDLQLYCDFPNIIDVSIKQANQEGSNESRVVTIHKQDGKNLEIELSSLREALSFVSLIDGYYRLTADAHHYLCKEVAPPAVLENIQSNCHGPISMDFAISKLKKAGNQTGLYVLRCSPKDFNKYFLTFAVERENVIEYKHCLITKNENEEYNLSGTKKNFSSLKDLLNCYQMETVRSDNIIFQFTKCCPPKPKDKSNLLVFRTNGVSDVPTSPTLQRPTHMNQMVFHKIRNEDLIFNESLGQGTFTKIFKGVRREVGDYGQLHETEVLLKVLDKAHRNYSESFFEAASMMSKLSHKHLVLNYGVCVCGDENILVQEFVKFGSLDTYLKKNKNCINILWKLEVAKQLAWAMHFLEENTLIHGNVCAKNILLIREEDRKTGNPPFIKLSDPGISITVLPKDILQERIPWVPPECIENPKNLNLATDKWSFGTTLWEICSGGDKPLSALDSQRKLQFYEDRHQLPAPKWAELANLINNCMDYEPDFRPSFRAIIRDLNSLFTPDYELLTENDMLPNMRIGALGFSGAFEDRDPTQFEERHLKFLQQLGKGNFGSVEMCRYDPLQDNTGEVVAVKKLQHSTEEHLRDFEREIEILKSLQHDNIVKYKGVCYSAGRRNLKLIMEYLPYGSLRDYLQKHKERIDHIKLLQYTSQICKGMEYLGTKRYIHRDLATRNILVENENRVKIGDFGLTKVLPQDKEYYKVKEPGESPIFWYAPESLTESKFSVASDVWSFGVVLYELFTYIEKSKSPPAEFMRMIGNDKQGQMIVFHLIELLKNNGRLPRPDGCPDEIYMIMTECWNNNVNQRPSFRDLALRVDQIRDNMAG

IC50: < 10 nM
SMILES: CCC(CC)n1cc(-c2nc(-c3cnn([C@H]4C[C@](O)(CO)C4)c3)cn3nccc23)cn1
